Results taken from patent US20210338694A1, “SOS1 ALLOSTERIC SITE TARGETING” (priority 2020, published 2021).

Legend:
Format in all cases: cell-based
[1] = system: Mononuclear bone marrow cells harvested from Kras G12D/+ mice; experiment: CellTiter-Glo Luminescent Cell Viability Assay (growth inhibitory assay); settings: Mus musculus, 48 h, 40 μM compound, two days of incubation, percentage of cells still alive at the end of the experiment, read-out: 40 μM (% Residual Activity)
Method: Mononuclear bone marrow cells harvested from Kras G12D/+ mice were tested for proliferation in a CellTiter-Glo® Luminescent Cell Viability Assay by Promega (Madison, Wis.) carried out by following the instructions provided by the manufacturer in the presence of 40 μM of 176 selected test compounds. […] The structures of these active compounds are shown in Table 1, along with the percentage of residual activity after two days of incubation with 40 μM of the compound. The residual activity is the percentage of cells that were still alive at the end of the experiment.

[2] = system: Kras (G12D) transformed pancreatic cancer cells (4039); experiment: Cell growth in tissue culture over a four-day period; settings: 40 μM, Kras (G12D) cells 4039, FIG. 1
Method: Kras (G12D) transformed pancreatic cancer cells (4039) and wild-type Kras expressing pancreatic cancer cells (4037) were each exposed to 40 μM of NSC-70220. Cell growth in the tissue culture was monitored by assays over a four-day period.

[3] = system: ERK activation of oncogenic Kras (G12D) pancreatic cancer cells; experiment: ERK activation by Western blotting of p-ERK, total ERK; settings: Western blot, FIGS. 2A and 2B
[4] = system: oncogenic Kras (G12C) transformed pancreatic MIA-PaCa-2 cells; experiment: Cell growth of treated cells; settings: Kras (G12C) MIA-PaCa-2 cells, FIGS. 3-5
Method: FIGS. 3-5 show data from experiments in which oncogenic Kras (G12C) transformed pancreatic MIA-PaCa-2 cells were treated with NSC-70220, and an experiment in which wild-type Kras expressing pancreatic BxPC-3 ductal cells were treated with NSC-70220.

Structure (SMILES) | activity at 40 µM [1] [%] | also measured
O=C(Nc1ccccc1C(=O)O)c1ccc([N+](=O)[O-])cc1 [Compound 114395] | 16 | 
O=C(N/N=C(/C=C/c1ccccc1)c1ccccc1)c1ccccc1O [Compound 121366] | 12 | 
O=C(NCc1ccccc1)/C(=C/C=C\c1ccccc1)NC(=O)c1ccccc1 [Compound 127987] | 5 | 
COc1ccc(C=C2c3ccccc3-c3ccccc32)cc1 [Compound 262294] | 13 | 
C=CCc1ccc(/C=N/NC(=O)c2ccccc2O)cc1O [Compound 290794] | 2 | 
Cc1cc(C)c2oc(-c3ccc(C)c(/N=C/C=C/c4ccc(Br)c([N+](=O)[O-])c4)c3)nc2c1 [Compound 312987] | 8 | 
O=C(N/N=C/c1ccc(O)c(O)c1)c1ccc(-c2ccccc2)cc1 [Compound 377089] | 6 | 
O=C(N/N=C/c1ccc(OCc2ccccc2)cc1)c1cccc(F)c1 [Compound 377247] | 11 | 
O=C(/C=C(\O)C(F)(F)/C(O)=C/C(=O)c1ccccc1)c1ccccc1 [Compound 387846] | 9 | 
O=C(N/N=C/C=C/c1ccc([N+](=O)[O-])o1)c1ccccc1O [Compound 388883] | 1 | 
O=C(NC(=S)NNC(=O)c1ccccc1O)c1ccc(-c2ccccc2)cc1 [Compound 390481] | 10 | 
O=C(N/N=C/c1ccc2ccccc2c1)c1ccccc1O [Compound 393689] | 11 | 
O=C(N/N=C/c1ccc(O)c(Br)c1)c1cc(Br)ccc1O [Compound 394392] | 3 | 
O=[N+]([O-])c1ccc(C=C(c2nc3ccccc3s2)c2nc3ccccc3s2)cc1 [Compound 408776] | 12 | 
O=C(NNC(=O)c1ccccc1C(=O)O)c1ccccc1O [Compound 473089] | 13 | 
O=C(/C=C/c1ccc(/C=C/C(=O)c2ccc(O)cc2)cc1)c1ccc(O)cc1 [Compound 511128] | 1 | 
O=C(C(=Cc1ccccc1[N+](=O)[O-])C(=O)c1ccccc1)c1ccccc1 [Compound 526470] | 15 | 
O=C(Nc1cc(Cl)ccc1O)c1ccc(Cl)c(C(=O)c2ccc(Cl)cc2)c1 [Compound 773778] | 8 | 
O=C(/C=C/c1ccccc1[N+](=O)[O-])c1ccco1 [Compound 775432] | 0 | 
O=C(NC(=S)Nc1ccccc1O)c1ccc(-c2ccccc2)cc1 [Compound 920300] | 12 | 
O=[N+]([O-])c1ccccc1/C=C/C=C1c2ccccc2-c2ccccc21 [NSC-70220] | 12 to 15 | inhibition of cell growth [2]: selectively inhibits; inhibition of ERK activation [3]: selectively inhibits ERK activation; inhibition of growth [4]: selectively inhibits growth
